Key:
[1] = Optical absorption (UV-Vis-NIR) in ethanol; assay type: physicochemical
Method: The UV-Vis-NIR optical absorption was recorded with an Agilent Cary5000 UV-Vis-NIR Spectrophotometer in the determination of the molar absorption coefficient and with Shimadzu UV-2100 spectrometer in routine measurements. The absorption spectra were recorded in the wavelengths from 300 nm up to 800 nm.
This is indicative of negligible aggregation between the molecules, which exist mostly as monomers at these concentrations in the solvents studied. Table 1 presents the infrared molar absorption coefficient (εmax) and wavelength maximum in ethanol of a typical carboxamide halogenated bacteriochlorin derivative of Formula (I). The same table also presents triplet lifetimes (τT) in air and N2 saturated solutions, fluorescence lifetime (τS), the quantum yields of fluorescence (ΦF), triplet state formation (ΦT), and singlet oxygen generation (ΦΔ) in ethanol, and photodegradation quantum yield (Φpd) in methanol:PBS (3:2). Triplet decays were clearly mono-exponential and in air-saturated ethanol the triplet lifetimes were in the range of 200 to 300 nanoseconds. Such values are consistent with diffusion limited energy transfer from the triplet state of the photosensitizer to molecular oxygen through a charge-transfer interaction (8). The absorption intensity of the test compounds in the photobleaching studies followed a mono-exponential decrease as a function of the illumination time.

P. acnes (ATCC 6919) = assay: In vitro phototoxicity towards Propionibacterium acnes; assay type: cell-based; details: 2 μM, 30 min incubation, irradiated with 10 J/cm^2
Method: Phototoxicity towards bacteria was evaluated in vitro against P. acnes (ATCC® 6919—Remel, Lenexa, Kans., USA) using light with the appropriate wavelength. P. acnes bacteria was cultured in Reinforced Clostridial Medium (Oxoid, Basingstok, UK) under anaerobic atmosphere at 37° C. Anaerobic growth conditions were obtained using an anaerobic jar with a sachet for anaerobic conditions generation (Anaerocult A, Merck, Darmstadt, Germany). P. acnes suspension was diluted with culture medium to an optical density at 620 nm of 1.3, corresponding to approximately […] CFU/ml (colony-forming units per milliliter). The diluted suspension was centrifuged at 13000 rpm for 10 minutes, and re-suspended in PBS. Test compound stock solutions were dissolved in PEG400:DMSO ([…] 400:dimethyl sulfoxide) (55:45) and were diluted to the appropriate concentrations with PBS. The incubation of the test compounds with P. acnes was performed in DB Falcon black 96-well plates with clear flat-bottom (Franklin Lakes, N.J., USA), in the absence of light, during 30 minutes. […] After the incubation period, the viability of P. acnes was evaluated. […] The phototoxicity was measured according to the description in the Materials and Methods section. […]

[2] = Skin permeation: depth by confocal fluorescence microscopy; assay type: in vitro ADME, pig; details: in 90 minutes, topical formulation
Method: Skin permeation was evaluated using a topical formulation containing benzyl alcohol (23%), Kolliphor EL (17%), Transcutol (50%) and water (10%). The photosensitizer added to this formulation corresponded to 1.85% of the mass before its addition, and the gelling agent (Aerosil 200) added corresponded to 5% of the mass before its addition. The photosensitizer was first dissolved in Transcutol and exposed to 3 min of vortex and 5 min of ultrasounds. A mixture of benzyl alcohol and Kolliphor EL was then added. Immediately after, it was mixed in an IKA MIXER at 200 rpm for 5 min and water was added drop-by-drop for 10 min. Finally, the gelling agent, Aerosil 200, was mixed in and the microemulsion gel was obtained. Skin permeation studies were performed in pig skin using samples collected from 5 months old pigs. The hair was removed as well as the underlying fatty layer, before the permeation studies.
This example describes the permeation of carboxamide bacteriochlorin with formula IX in pig skin. The topical formulation and the animal model were described in the Materials and Methods section. The permeation was assessed both in terms of the amount of photosensitizer in the skin after designated times of contact between the topical formulation and the skin (incubation time) and in terms of the depth of the permeation in the skin. […]

[3] = Photobleaching (photodecomposition quantum yield); assay type: physicochemical; details: methanol:PBS (3:2)

For `CNC(=O)c1c2nc(c(-c3c(F)cccc3F)c3ccc(cc4nc(c(-c5c(F)cccc5F)c5ccc1[nH]5)CC4)[nH]3)CC2` [formula IX, 5-methylcarboxamide-10,20-bis-(2,6-difluorophenyl)bacteriochlorin], the “λ (wavelength of maximum infrared absorption)” value [1] was 734 nm, the “ε (λ) molar absorption coefficient” value ([1]; at 734 nm) was 69 10^3 M^−1 cm^−1 and the “log CFU P. Acnes (reduction of bacterial CFU, orders of magnitude)” value (P. acnes (ATCC 6919)) was 9 log CFU. For the same compound, the “depth of penetration in the skin” value [2] was 40 μm and the “Φpd photodecomposition quantum yield” value [3] was 1.5 10^−4.

From patent US10450322B2, “Low molecular weight derivatives of carboxamide halogenated porphyrins, namely chlorins and bacteriochlorins, and their applications thereof” (LUZITIN, S.A., priority 2015, dated 2019)
